Consider 2 substances from US20170035914A1, “FUNCTIONALIZED PEPTIDE TRANSPORTERS FOR CELLULAR UPTAKE” (General Electric Company, priority 2015, published 2017).

Primed or numbered codes have the meaning given here. 5‑FAM = 5-FAM fluorescein label; Npys′ = not defined here

The test system of experiment [1] is live cells. Put plainly: Live-cell fluorescence microscopy of cell uptake and nuclear labeling, cell type not given (FIG. 4, 6, 7, 9). It is filed as cell-based. The source says: A CPP-cargo construct (comprising a cell-penetrating moiety and a nuclear targeting moiety) was synthesized and conjugated via reactive 3-nitro-2-pyridinesulfenyl cysteine residues, and then purified by HPLC. When exogenously supplemented into cell staining media, these peptide fusions are designed to penetrate living cells and cleave into two subunits within the reducing environment of cell cytoplasm, thereby releasing a FITC-NLS peptide that is actively trafficked into the cell nucleus.

In experiment [2] the test system is CHO cells. The experiment is described as follows: Live-cell fluorescence microscopy of cell uptake and nuclear labeling by CPP-NLS-FAM fusion peptides. It is filed as cell-based. The settings on record: mammalian CHO cells, compared with other tested cell-penetrating sequences, FIG. 4. An excerpt:
(§1) A CPP-cargo construct (comprising a cell-penetrating moiety and a nuclear targeting moiety) was synthesized and conjugated via reactive 3-nitro-2-pyridinesulfenyl cysteine residues, and then purified by HPLC. When exogenously supplemented into cell staining media, these peptide fusions are designed to penetrate living cells and cleave into two subunits within the reducing environment of cell cytoplasm, thereby releasing a FITC-NLS peptide that is actively trafficked into the cell nucleus. Thus, the fusion peptide is convenient for discriminating nuclei by live-cell microscopy.
(§2) Live human MRC5 cells and mammalian CHO cells were incubated with fusion proteins as depicted in the flow chart in FIG. 3, steps 1 through 9. […] The FITC-NLS/pVEC fusion was constructed by independently synthesizing a FITC-NLS-Npys peptide and a modified pVEC sequence containing a terminal cysteine residue: […]

The test system of experiment [3] is MRC5 cells. The description is as above. Type of experiment: cell-based, human.
From the text: as §1, §2

The mark [4] stands for this setting: in the presence of excess monovalent pVEC (~132-156 μg/well), FIG. 7.

In the case of “5-FAM-GGPKKKRKVGGC(N-Pys)-OH ({5‑FAM}-GGPKKKRKVGGC(Npys′)-OH) [FITC-NLS-Npys]”, the “effect of monovalent pVEC on cell uptake” value in experiment [1] (higher amounts of monovalent pVEC (~132 μg/well), FIG. 9) is recorded as “enhanced cell uptake”.

For the substance “5-FAM-GGPKKKRKVGGCCGGKSHAHAQKRIRRRLIILL (not fully specified; 5-FAM; disulfide-linked) [FAM-NLS-C-C-pVEC, disulfide-linked fusion of Fluorescein-NLS-Npys peptide and modified pVEC peptide]”, in experiment [1] (setting [4]), the “cell uptake and nuclear targeting” value is “enhanced”; the “reduction in fusion peptide needed for equal or better cell uptake and nuclear labeling” value is reported as “at least 8 fold”. For the same substance, in experiment [1] (various cell types, FIG. 4 legend), the “delivery of the NLS-FAM cargo moiety into cells” value was “high efficiency”. Also, in experiment [2], the “cell-uptake efficiency and nuclear labeling” value is recorded as “highest”. Also, in experiment [3] (live human MRC5 cells, compared with other tested cell-penetrating sequences, FIG. 4), the “cell-uptake efficiency and nuclear labeling” value is “highest”. Also, in experiment [3] (monovalent pVEC ~44 μg/well, MRC5 cells, FIG. 8), the “effect of monovalent pVEC on cellular uptake” value is “enhanced”.
